Measured values: paper PMC7842083 (Molecular pharmaceutics, 2020)
Like-named read-outs stand apart in the source and are kept apart here.

How the values were obtained:
[1] = oral administration; cited from earlier work
in vivo = settings: female, po
[2] = 120 min, mean ± SD
in vitro = settings: pH 6; for Papp at 120 min, 0.1 µCi/mL: APP/PS1, mouse; for Papp at 120 min: WT, mouse
[3] = for time at which plasma concentrations reached a maximum: oral administration

In the case of `CCN(C)C(=O)Oc1cccc([C@H](C)N(C)C)c1` [rivastigmine], the “plasma concentrations in people with AD compared to healthy volunteers” value [1] is given as “significantly higher”.

With `Cn1c(=O)c2c(ncn2C)n(C)c1=O` [Caffeine, caffeine] the Kp (in vivo; APP/PS1 (B6C3-Tg (APPswe, PSEN1dE9)85Dbo/Mmjax), mouse) was 0.63 to 2.82, the Kp (in vivo; WT littermates of APP/PS1, mouse) was 1.07 to 2.78 and the “% of initial amount at 2 h (absorbed through jejunal tissue)” value (shortened to “% of initial amount at 2 h”) ([2]; jejunum from APP/PS1 mice, listed as 14C-Caffeine) was 0.46 ± 0.14%. For the same molecule, the “% of initial amount at 2 h” value ([2]; jejunum from APP/PS1 mice, listed as 14C-caffeine) was 0.46%, the “% of initial amount at 2 h” value ([2]; jejunum from WT mice, listed as 14C-Caffeine) was 0.40 ± 0.09% and the “% of initial amount at 2 h” value ([2]; jejunum from WT mice, listed as 14C-caffeine) was 0.40%. The Papp at 120 min, 0.1 µCi/mL (in vitro) was 27.2 ± 13.8 ×10⁻⁶ cm/s, the Papp at 120 min (in vitro) was 31.4 ± 10.1 ×10⁻⁶ cm/s and the “time post-dose at which Cmax appeared” value ([3]; oral dose of 5 mg/kg, present study) was 0.5 h.

In the case of `C[C@H]1O[C@@H](O[C@H]2[C@@H](O)C[C@H](O[C@H]3[C@@H](O)C[C@H](O[C@H]4CC[C@@]5(C)[C@H](CC[C@@H]6[C@@H]5C[C@@H](O)[C@]5(C)[C@@H](C7=CC(=O)OC7)CC[C@]65O)C4)O[C@@H]3C)O[C@@H]2C)C[C@H](O)[C@@H]1O` [Digoxin, digoxin], the “% of initial amount at 2 h” value ([2]; jejunum from APP/PS1 mice, listed as 3H-Digoxin) is reported as 0.22 ± 0.11 %, the “% of initial amount at 2 h” value ([2]; jejunum from APP/PS1 mice, listed as 3H-digoxin) is reported as 0.22 ± 0.11% and the “% of initial amount at 2 h” value ([2]; jejunum from WT mice, listed as 3H-Digoxin) is reported as 0.85 ± 0.30%. For the same molecule, the “% of initial amount at 2 h” value ([2]; jejunum from WT mice, listed as 3H-digoxin) was 0.85 ± 0.3%, the Papp at 120 min, 0.1 µCi/mL (in vitro) was 14.5 ± 11 ×10⁻⁶ cm/s and the Papp at 120 min (in vitro) was 64.2 ± 39.4 ×10⁻⁶ cm/s. The “time at which plasma concentrations reached a maximum” value ([3]; APP/PS1 mice) was 0.5 h and the “time at which plasma concentrations reached a maximum” value ([3]; WT mice) was 0.5 h.

With `OC[C@@H](O)[C@@H](O)[C@H](O)[C@H](O)CO` [^14C-Mannitol, mannitol] the “% of initial amount at 2 h” value ([2]; jejunum from APP/PS1 mice) was 0.12 ± 0.04 %, the “% of initial amount at 2 h” value ([2]; jejunum from WT mice) was 0.17 ± 0.05% and the Papp at 120 min, 0.1 µCi/mL (in vitro) was 6 ± 3.4 ×10⁻⁶ cm/s. For the same molecule, the Papp at 120 min (in vitro) was 10.7 ± 3.7 ×10⁻⁶ cm/s.

In the case of `CCCCC(=O)N(Cc1ccc(-c2ccccc2-c2nnn[nH]2)cc1)[C@H](C(=O)O)C(C)C` [Valsartan, valsartan], the Papp at 120 min (in vitro) is reported as 55.8 ± 16.7 ×10⁻⁶ cm/s, the “time at which plasma concentrations reached a maximum” value ([3]; APP/PS1 mice) is reported as 1 h and the “time at which plasma concentrations reached a maximum” value ([3]; WT mice) is reported as 1 h.

In the case of `CN1C(=O)CN=C(c2ccccc2)c2cc(Cl)ccc21` [Diazepam, diazepam], the “% of initial amount at 2 h” value ([2]; jejunum from APP/PS1 mice, listed as 3H-Diazepam) is reported as 0.52 ± 0.12%, the “% of initial amount at 2 h” value ([2]; jejunum from APP/PS1 mice, listed as 3H-diazepam) is reported as 0.52% and the “% of initial amount at 2 h” value ([2]; jejunum from WT mice, listed as 3H-Diazepam) is reported as 0.42 ± 0.12%. For the same molecule, the “% of initial amount at 2 h” value ([2]; jejunum from WT mice, listed as 3H-diazepam) was 0.42%.
